# ChEMBL document CHEMBL1124706, “Synthesis, antiretrovirus effects, and phosphorylation kinetics of 3'-isocyano-3'-deoxythymidine and 3'-isocyano-2',3'-dideoxyuridine” (1990)
# What was measured:
# Format in all cases: functional
# MT4 [1] = assay: Cytopathogenicity against HIV-1 induced, replication in MT-4 cells was determined; details: Homo sapiens, read-out: ED50 (the source's name)
# [2] = Ratio of CD50 value to that of ED50 value was determined and expressed as selectivity index
# MT4 [3] = assay: Cytotoxic dose to reduce the viability of MT-4 cells by 50 % was determined; details: Homo sapiens, read-out: CD50 (the source's name)
# MT4 [4] = assay: Cytopathogenicity against HIV-2 induced replication in MT-4 cells was determined; details: Homo sapiens, read-out: ED50 (the source's name)
SMILES,EC50 (MT4 [1]) [nM],Selectivity index [2],CC50 (MT4 [3]) [µM],EC50 (MT4 [4]) [nM]
Cc1cn([C@H]2C[C@H](N=[N+]=[N-])[C@@H](CO)O2)c(=O)[nH]c1=O [ZIDOVUDINE],4,1580,6.3,4
[C-]#[N+]C1CC(n2cc(C)c(=O)[nH]c2=O)OC1CO (configuration not stated),> 800,< 1.1,0.88,> 800
[C-]#[N+]C1CC(n2ccc(=O)[nH]c2=O)OC1CO (configuration not stated),> 500000,< 1,≥ 500,> 500000
